Measured values published in patent US20230405151A1, “USE OF IRAK4 MODULATORS FOR GENE THERAPY” (Genzyme Corporation, priority 2022, published 2023).

System: C57BL/6J mice injected with AAV (LacZ transgene)
Assay: In vivo mouse AAV model: CD8 TEM and lacZ tetramer staining of PBMCs and splenocytes
Details: chow 100 mg/kg from 15 days prior to AAV, versus AAV group
Description: In-vivo mice experiments. C57BL/6J mice were purchased from Jackson Laboratories. 6-8-week male mice were divided into 3 groups—PBS group, AAV group and AAV+IRAK4 group all groups with 10 mice each. Zimlovisertib IRAK4 inhibitor (Synonyms: PF-06650833) Cat. No.: HY-19836 (MedChemExpress) was mixed with mouse chow Catalog #2016, Teklad Global 16% Protein Rodent Diets https://www.inotivco.com/rodent-natural-ingredient-2016-diets at a dose of 30 mg/kg. AAV+IRAK4 group was fed the chow with Zimlovisertib IRAK4 inhibitor 15 days prior to AAV injection whereas PBS and AAV group were fed with mouse chow Catalog #2016, Teklad Global 16% Protein Rodent Diets https://www.inotivco.com/rodent-natural-ingredient-2016-diets. PBS group mice were injected intramuscularly with 100 ul PBS, AAV group was injected intramuscularly with 1e11 vg per quadricep muscle of both legs, 100 ul volume.
The same experiment design was followed with n=6 mice in each group PBS group, AAV group and AAV+IRAK4 degrader PROTAC IRAK4 degrader-1 Cat. No.: HY-129966 (MedChemExpress) that was mixed with chow at 100 mg/kg and fed to mice 15 days prior to AAV injection. […] AAV capsid used in the study had LacZ transgene. All animal experiments were conducted in accordance with the Institutional Animal Care and Use Committees at Sanofi, Framingham. Submandibular bleeds were performed weekly, and necropsy was performed three weeks post AAV injection.
PBMC isolation and surface staining. 120 ul blood was collected in K2EDTA coated tubes. The blood was mixed with DBPS at 1:1 ration and pipetted into a separate tube containing Ficoll (GE17-5442-02) to ensure no mixing of the blood and Ficoll phases. The mixture was centrifuged at 2000 RPM for 25 minutes at room temperature (9 acceleration and no braking). The buffy coat containing the peripheral blood mononuclear cells (PBMCs) was collected, transferred to a new tube, and centrifuged for five minutes at 400 RCF. PBMCs were washed three times with phosphate buffered saline (PBS) containing 1% fetal bovine serum (FBS) or fetal calf serum (FCS) and counted. The PBMC cells thus obtained were stained with different antibodies to quantify percentage of different immune cell subsets in peripheral blood.
PBMC CD8 TEM and lacZ tetramer staining. The PBMC was isolated from ˜120 μl of mouse blood, and it was transferred to a 96-well U-bottom plate. […]

Compound: Cn1c(=O)n(C2CCC(=O)NC2=O)c2cccc(C#CCOC3CCN(C[C@H]4CC[C@H](n5cc(NC(=O)c6cnn7ccc(N8C[C@H]9C[C@@H]8CO9)nc67)c(C(F)F)n5)CC4)CC3)c21 (some centres unmarked) [KT-474]
- LacZ tetramer positive (transgene LacZ specific CD8 T) cells in PBMCs (14 days post AAV injections): reduced significantly
- LacZ tetramer positive (transgene LacZ specific CD8 T) cells in spleen (21 days post AAV injections): reduced significantly
